Experimental data published in PubChem BioAssay (NCI).
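Compound exposure: 48 hours, 5 concentrations, 96-well plates. TGI is the concentration that stops growth completely.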

System: HL-60(TB) leukemia
Experiment: NCI anticancer screen, dose series, 48 h

| Compound | TGI [µM] |
| --- | --- |
| CCCC(=O)NC(NC1CCCCC1)(C(=O)OCC)C(F)(F)F (stereo unspecified) | > 100 |
| Cc1c2n(c(=O)[nH]c1=O)C1OC(CO)C(O2)C1O (stereo unspecified) | > 100 |
| CC1(C)/C(=N\NC(N)=O)C2CCC1C2 (stereo unspecified) | > 100 |
| CO[C@@]12C[C@@H](C)C3=CCC(C)=C3CC1=C(C)C(=O)O2 | > 100 |
| O=C1/C(=C/c2ccc(Br)s2)NC(=S)N1c1ccccc1 | > 100 |
| CC(C)(C)OC(=O)N(CCCCN(CCCNC(=O)C(F)(F)F)C(=O)OC(C)(C)C)CCCNC(=O)C(F)(F)F | > 100 |
| C=CCCON(C(=O)OC(C)(C)C)C(C)(C)C | > 100 |
| CCOC(=O)Nc1[nH]cc(-c2ccccc2)c1C#N | > 100 |
| [N-]=[N+]=NC1(Cc2ccccc2)C(=O)c2cccc3c2N(CCC3)C1=O (stereo unspecified) | > 100 |
| O=c1oc2ccccc2cc1-c1cc2ccccn2c1 | > 100 |
| COC(=O)c1c(O)ccc2c1c1c(n2Cc2cc(OC)cc(OC)c2)C(=O)c2ccccc2C1 | > 100 |
| CC(=O)CCn1c(=S)sc2ccccc21 | > 100 |
| COc1cc(OC)c2nc(C)c(CCCl)c(Cl)c2c1 | > 100 |
| COc1cc(Nc2nc3ccccc3nc2C(=O)O)cc(OC)c1OC | > 100 |

System: ACHN renal
Experiment: NCI anticancer screen, dose series, 48 h

| Compound | TGI [µM] |
| --- | --- |
| O=[N+]([O-])C[C@@]12O[C@]3(O)C4C5CC(C6C5C3C61)C42 (stereo partly specified) | > 100 |
| Cc1ccc(/C=N/Nc2cc(C)c3cccc(C)c3n2)s1 | 68.5 |
| CO/N=C(\C(=O)OC(=NC1CCCCC1)NC1CCCCC1)c1csc(NC(c2ccccc2)(c2ccccc2)c2ccccc2)n1 | > 10 |
| CCCC(=O)NC(NC1CCCCC1)(C(=O)OCC)C(F)(F)F (stereo unspecified) | > 100 |
| Cc1c2n(c(=O)[nH]c1=O)C1OC(CO)C(O2)C1O (stereo unspecified) | > 100 |
| CN(CCSCCN(C)C(=O)OC(C)(C)C)C(=O)OC(C)(C)C | > 100 |
| CC1(C)/C(=N\NC(N)=O)C2CCC1C2 (stereo unspecified) | > 100 |
| CO[C@@]12C[C@@H](C)C3=CCC(C)=C3CC1=C(C)C(=O)O2 | > 100 |
| CC1(C)[C@@H](Cn2ccc(=O)[nH]c2=O)CC[C@@]1(C)CO | > 100 |
| O=C1/C(=C/c2ccc(Br)s2)NC(=S)N1c1ccccc1 | > 100 |
| CC(C)(C)OC(=O)N(CCCCN(CCCNC(=O)C(F)(F)F)C(=O)OC(C)(C)C)CCCNC(=O)C(F)(F)F | > 100 |
| C=CCCON(C(=O)OC(C)(C)C)C(C)(C)C | > 100 |
| CCOC(=O)Nc1[nH]cc(-c2ccccc2)c1C#N | > 100 |
| [N-]=[N+]=NC1(Cc2ccccc2)C(=O)c2cccc3c2N(CCC3)C1=O (stereo unspecified) | > 100 |
| O=c1oc2ccccc2cc1-c1cc2ccccn2c1 | > 100 |
| O=C(N/N=C(\c1ccccc1)c1ccccn1)NC1CCCCC1 | > 100 |
| CC(=O)CCn1c(=S)sc2ccccc21 | > 100 |
| NC(N)=NCCN1CC2CCC(CC2)C1 | > 100 |
| COc1cc(OC)c2nc(C)c(CCCl)c(Cl)c2c1 | > 100 |
| COc1cc(Nc2nc3ccccc3nc2C(=O)O)cc(OC)c1OC | > 100 |
| O=[N+]([O-])c1cccc(C2=NN(c3ccccc3)C[N+](c3ccc(Br)cc3)=N2)c1 | > 100 |

System: MALME-3M melanoma
Experiment: NCI anticancer screen, dose series, 48 h

| Compound | TGI [µM] |
| --- | --- |
| O=[N+]([O-])C[C@@]12O[C@]3(O)C4C5CC(C6C5C3C61)C42 (stereo partly specified) | > 100 |
| Cc1ccc(/C=N/Nc2cc(C)c3cccc(C)c3n2)s1 | 33.1 |
| CO/N=C(\C(=O)OC(=NC1CCCCC1)NC1CCCCC1)c1csc(NC(c2ccccc2)(c2ccccc2)c2ccccc2)n1 | > 10 |
| CCCC(=O)NC(NC1CCCCC1)(C(=O)OCC)C(F)(F)F (stereo unspecified) | > 100 |
| CN(CCSCCN(C)C(=O)OC(C)(C)C)C(=O)OC(C)(C)C | > 100 |
| CC1(C)/C(=N\NC(N)=O)C2CCC1C2 (stereo unspecified) | > 100 |
| CO[C@@]12C[C@@H](C)C3=CCC(C)=C3CC1=C(C)C(=O)O2 | > 100 |
| O=C1/C(=C/c2ccc(Br)s2)NC(=S)N1c1ccccc1 | > 100 |
| C=CCCON(C(=O)OC(C)(C)C)C(C)(C)C | > 100 |
| CCOC(=O)Nc1[nH]cc(-c2ccccc2)c1C#N | > 100 |
| [N-]=[N+]=NC1(Cc2ccccc2)C(=O)c2cccc3c2N(CCC3)C1=O (stereo unspecified) | > 100 |
| COC(=O)c1c(O)ccc2c1c1c(n2Cc2cc(OC)cc(OC)c2)C(=O)c2ccccc2C1 | > 100 |
| O=C(N/N=C(\c1ccccc1)c1ccccn1)NC1CCCCC1 | > 100 |
| NC(N)=NCCN1CC2CCC(CC2)C1 | > 100 |
| COc1cc(OC)c2nc(C)c(CCCl)c(Cl)c2c1 | > 100 |
| COc1cc(Nc2nc3ccccc3nc2C(=O)O)cc(OC)c1OC | > 100 |
| O=[N+]([O-])c1cccc(C2=NN(c3ccccc3)C[N+](c3ccc(Br)cc3)=N2)c1 | > 100 |

System: RXF 393 renal
Experiment: NCI anticancer screen, dose series, 48 h

| Compound | TGI [µM] |
| --- | --- |
| O=[N+]([O-])C[C@@]12O[C@]3(O)C4C5CC(C6C5C3C61)C42 (stereo partly specified) | > 100 |
| Cc1ccc(/C=N/Nc2cc(C)c3cccc(C)c3n2)s1 | 32.8 |
| CO/N=C(\C(=O)OC(=NC1CCCCC1)NC1CCCCC1)c1csc(NC(c2ccccc2)(c2ccccc2)c2ccccc2)n1 | > 10 |
| CCCC(=O)NC(NC1CCCCC1)(C(=O)OCC)C(F)(F)F (stereo unspecified) | > 100 |
| Cc1c2n(c(=O)[nH]c1=O)C1OC(CO)C(O2)C1O (stereo unspecified) | > 100 |
| CC1(C)[C@@H](Cn2ccc(=O)[nH]c2=O)CC[C@@]1(C)CO | > 100 |
| O=C1/C(=C/c2ccc(Br)s2)NC(=S)N1c1ccccc1 | > 100 |
| CC(C)(C)OC(=O)N(CCCCN(CCCNC(=O)C(F)(F)F)C(=O)OC(C)(C)C)CCCNC(=O)C(F)(F)F | > 100 |
| C=CCCON(C(=O)OC(C)(C)C)C(C)(C)C | > 100 |
| [N-]=[N+]=NC1(Cc2ccccc2)C(=O)c2cccc3c2N(CCC3)C1=O (stereo unspecified) | > 100 |
| O=c1oc2ccccc2cc1-c1cc2ccccn2c1 | > 100 |
| COC(=O)c1c(O)ccc2c1c1c(n2Cc2cc(OC)cc(OC)c2)C(=O)c2ccccc2C1 | 68.6 |
| CC(=O)CCn1c(=S)sc2ccccc21 | > 100 |
| NC(N)=NCCN1CC2CCC(CC2)C1 | > 100 |
| COc1cc(OC)c2nc(C)c(CCCl)c(Cl)c2c1 | > 100 |
| COc1cc(Nc2nc3ccccc3nc2C(=O)O)cc(OC)c1OC | > 100 |
| O=[N+]([O-])c1cccc(C2=NN(c3ccccc3)C[N+](c3ccc(Br)cc3)=N2)c1 | > 100 |

System: 786-0 renal
Experiment: NCI anticancer screen, dose series, 48 h

| Compound | TGI [µM] |
| --- | --- |
| O=[N+]([O-])C[C@@]12O[C@]3(O)C4C5CC(C6C5C3C61)C42 (stereo partly specified) | > 100 |
| Cc1ccc(/C=N/Nc2cc(C)c3cccc(C)c3n2)s1 | 11 |
| CO/N=C(\C(=O)OC(=NC1CCCCC1)NC1CCCCC1)c1csc(NC(c2ccccc2)(c2ccccc2)c2ccccc2)n1 | > 10 |
| CCCC(=O)NC(NC1CCCCC1)(C(=O)OCC)C(F)(F)F (stereo unspecified) | > 100 |
| Cc1c2n(c(=O)[nH]c1=O)C1OC(CO)C(O2)C1O (stereo unspecified) | > 100 |
| CN(CCSCCN(C)C(=O)OC(C)(C)C)C(=O)OC(C)(C)C | > 100 |
| CC1(C)/C(=N\NC(N)=O)C2CCC1C2 (stereo unspecified) | > 100 |
| CO[C@@]12C[C@@H](C)C3=CCC(C)=C3CC1=C(C)C(=O)O2 | > 100 |
| CC1(C)[C@@H](Cn2ccc(=O)[nH]c2=O)CC[C@@]1(C)CO | > 100 |
| O=C1/C(=C/c2ccc(Br)s2)NC(=S)N1c1ccccc1 | > 100 |
| CC(C)(C)OC(=O)N(CCCCN(CCCNC(=O)C(F)(F)F)C(=O)OC(C)(C)C)CCCNC(=O)C(F)(F)F | > 100 |
| C=CCCON(C(=O)OC(C)(C)C)C(C)(C)C | > 100 |
| CCOC(=O)Nc1[nH]cc(-c2ccccc2)c1C#N | > 100 |
| [N-]=[N+]=NC1(Cc2ccccc2)C(=O)c2cccc3c2N(CCC3)C1=O (stereo unspecified) | > 100 |
| O=c1oc2ccccc2cc1-c1cc2ccccn2c1 | > 100 |
| COC(=O)c1c(O)ccc2c1c1c(n2Cc2cc(OC)cc(OC)c2)C(=O)c2ccccc2C1 | > 100 |
| O=C(N/N=C(\c1ccccc1)c1ccccn1)NC1CCCCC1 | > 100 |
| CC(=O)CCn1c(=S)sc2ccccc21 | > 100 |
| NC(N)=NCCN1CC2CCC(CC2)C1 | > 100 |
| COc1cc(OC)c2nc(C)c(CCCl)c(Cl)c2c1 | > 100 |
| COc1cc(Nc2nc3ccccc3nc2C(=O)O)cc(OC)c1OC | > 100 |
| O=[N+]([O-])c1cccc(C2=NN(c3ccccc3)C[N+](c3ccc(Br)cc3)=N2)c1 | > 100 |
